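These data come from cells grown in 96-well plates and exposed to compound for 48 hours at five concentrations. TGI marks complete inhibition of growth.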
Assays:
Assay in all cases: NCI-60 cell line screen, 48 h
[1] = test system: M19-MEL melanoma
[2] = test system: HOP-18 NSCLC
[3] = test system: OVCAR-4 ovarian
[4] = test system: NCI-H23 lung
[5] = test system: SW-620 colon
[6] = test system: ACHN renal
[7] = test system: KM20L2 colon
[8] = test system: RXF 393 renal
[9] = test system: HCC-2998 colon
[10] = test system: CCRF-CEM leukemia
[11] = test system: NCI-H522 lung
[12] = test system: KM12 colon
[13] = test system: EKVX NSCLC
[14] = test system: HOP-62 NSCLC
[15] = test system: OVCAR-5 ovarian
[16] = test system: SF-295 CNS
[17] = test system: SF-539 CNS
[18] = test system: OVCAR-8 ovarian
[19] = test system: U251 CNS
[20] = test system: HCT-116 colon
[21] = test system: MALME-3M melanoma
[22] = test system: MOLT-4 leukemia
[23] = test system: IGROV1 ovarian
[24] = test system: HT29 colon
[25] = test system: A498 renal
[26] = test system: M14 melanoma
[27] = test system: COLO 205 colon
[28] = test system: SN12C renal
[29] = test system: LXFL 529 NSCLC
[30] = test system: SK-MEL-2 melanoma
[31] = test system: 786-0 renal
[32] = test system: SNB-78 CNS
[33] = test system: A549 NSCLC
[34] = test system: UACC-62 melanoma
[35] = test system: HL-60(TB) leukemia
[36] = test system: DLD-1 colon
[37] = test system: SK-MEL-5 melanoma
[38] = test system: SF-268 CNS
[39] = test system: HCT-15 colon
[40] = test system: OVCAR-3 ovarian
[41] = test system: UACC-257 melanoma
[42] = test system: TK-10 renal
[43] = test system: SK-MEL-28 melanoma
[44] = test system: HOP-92 NSCLC
[45] = test system: UO-31 renal
[46] = test system: K-562 leukemia
[47] = test system: NCI-H460 lung
[48] = test system: HS 578T breast
[49] = test system: T-47D breast
[50] = test system: CAKI-1 renal
[51] = test system: NCI/ADR-RES ovarian
[52] = test system: SK-OV-3 ovarian
[53] = test system: PC-3 prostate
[54] = test system: LOX IMVI melanoma
[55] = test system: SR leukemia
[56] = test system: SNB-75 CNS
[57] = test system: SNB-19 CNS
[58] = test system: NCI-H226 lung
[59] = test system: MDA-MB-231 breast
[60] = test system: BT-549 breast
[61] = test system: DU-145 prostate
[62] = test system: MDA-N
[63] = test system: MDA-MB-435
[64] = test system: MCF7 breast
[65] = test system: RPMI-8226 leukemia

With `CCCCP1(=O)C=CC(Cl)=C(C)C1` (stereo unspecified) the TGI [1] was greater than 100 µM, the TGI [2] was greater than 100 µM and the TGI [3] was greater than 100 µM. It also gave a TGI [4] greater than 100 µM, a TGI [5] greater than 100 µM and a TGI [6] greater than 100 µM. The TGI [7] was greater than 100 µM, the TGI [8] was greater than 100 µM and the TGI [9] was greater than 100 µM. The TGI [10] was greater than 100 µM, the TGI [11] was greater than 100 µM and the TGI [12] was greater than 100 µM. For the same compound, the TGI [13] was greater than 100 µM, the TGI [14] was greater than 100 µM and the TGI [15] was greater than 100 µM. It also gave a TGI [16] greater than 100 µM, a TGI [17] greater than 100 µM and a TGI [18] greater than 100 µM. It also gave a TGI [19] greater than 100 µM, a TGI [20] greater than 100 µM and a TGI [21] greater than 100 µM. For the same compound, the TGI [22] was greater than 100 µM, the TGI [23] was greater than 100 µM and the TGI [24] was greater than 100 µM. The TGI [25] was greater than 100 µM, the TGI [26] was greater than 100 µM and the TGI [27] was greater than 100 µM. The TGI [28] was greater than 100 µM, the TGI [29] was greater than 100 µM and the TGI [30] was greater than 100 µM. It also gave a TGI [31] greater than 100 µM, a TGI [32] greater than 100 µM and a TGI [33] greater than 100 µM. The TGI [34] was greater than 100 µM, the TGI [35] was greater than 100 µM and the TGI [36] was greater than 100 µM. It also gave a TGI [37] greater than 100 µM, a TGI [38] greater than 100 µM and a TGI [39] greater than 100 µM. The TGI [40] was greater than 100 µM, the TGI [41] was greater than 100 µM and the TGI [42] was greater than 100 µM. For the same compound, the TGI [43] was greater than 100 µM, the TGI [44] was greater than 100 µM and the TGI [45] was greater than 100 µM. For the same compound, the TGI [46] was greater than 100 µM and the TGI [47] was greater than 100 µM.
`FC(F)(F)c1ccc2c(c1)nc(Cc1ccc(Cl)cc1)n2CC1CCCN2CCCCC12` (stereo unspecified) was tested, and the TGI [3] was 36.1 µM, the TGI [5] was 27.4 µM and the TGI [6] was 23.6 µM. It also gave a TGI [48] of 6.9 µM, a TGI [8] of 22 µM and a TGI [49] of 19.6 µM. The TGI [9] was 10.5 µM, the TGI [11] was 16.9 µM and the TGI [12] was 21.4 µM. It also gave a TGI [13] of 23.2 µM, a TGI [50] of 30.4 µM and a TGI [14] of 27.7 µM. For the same compound, the TGI [51] was 20.8 µM, the TGI [52] was 24.1 µM and the TGI [53] was 20.9 µM. It also gave a TGI [54] of 7.85 µM, a TGI [15] of 25 µM and a TGI [16] of 22.3 µM. The TGI [18] was 23.4 µM, the TGI [19] was 20.5 µM and the TGI [20] was 19.9 µM. The TGI [55] was 7.13 µM, the TGI [21] was 3.8 µM and the TGI [22] was 10.4 µM. It also gave a TGI [23] of 22 µM, a TGI [24] of 11.6 µM and a TGI [25] of 27.1 µM. It also gave a TGI [26] of 4.91 µM, a TGI [27] of 16 µM and a TGI [56] of 14 µM. It also gave a TGI [57] of 26.9 µM, a TGI [28] of 21.4 µM and a TGI [30] of 26.4 µM. The TGI [31] was 20.7 µM, the TGI [58] was 24.2 µM and the TGI [59] was 13.1 µM. The TGI [60] was 23.7 µM, the TGI [61] was 21.6 µM and the TGI [33] was 25.1 µM. The TGI [34] was 10.1 µM, the TGI [35] was 6.13 µM and the TGI [62] was 13.7 µM. For the same compound, the TGI [63] was 24.4 µM, the TGI [37] was 15.2 µM and the TGI [38] was 18 µM. For the same compound, the TGI [39] was 20.9 µM, the TGI [40] was 15.2 µM and the TGI [41] was 8.41 µM. For the same compound, the TGI [42] was 24.7 µM, the TGI [43] was 6.38 µM and the TGI [44] was 20.4 µM. For the same compound, the TGI [45] was 0.0985 µM, the TGI [46] was 19.4 µM and the TGI [64] was 21.8 µM. It also gave a TGI [47] of 20.7 µM.
Work on `O=C1C(CN2CCCC2)CCC1CN1CCCC1` (stereo unspecified) yielded a TGI [3] of 48.7 µM, a TGI [4] of 38.2 µM and a TGI [5] of 11 µM. The TGI [6] was 29.3 µM, the TGI [48] was 55.7 µM and the TGI [8] was 37.2 µM. The TGI [49] was 37.8 µM, the TGI [9] was greater than 100 µM and the TGI [10] was greater than 60.1 µM. For the same compound, the TGI [11] was 3.52 µM, the TGI [12] was greater than 100 µM and the TGI [13] was greater than 82.7 µM. It also gave a TGI [50] of 24.6 µM, a TGI [14] greater than 100 µM and a TGI [51] of 56.8 µM. For the same compound, the TGI [52] was greater than 100 µM, the TGI [53] was greater than 55.9 µM and the TGI [54] was greater than 51.9 µM. The TGI [15] was greater than 55.9 µM, the TGI [16] was greater than 100 µM and the TGI [17] was 35.3 µM. The TGI [18] was 37.5 µM, the TGI [19] was greater than 100 µM and the TGI [20] was 32.6 µM. It also gave a TGI [55] greater than 100 µM, a TGI [21] of 29 µM and a TGI [22] of 39.9 µM. The TGI [23] was greater than 82.3 µM, the TGI [24] was 40.7 µM and the TGI [25] was greater than 100 µM. For the same compound, the TGI [26] was 29.7 µM, the TGI [27] was 17.5 µM and the TGI [56] was 33.4 µM. For the same compound, the TGI [57] was greater than 100 µM, the TGI [65] was 34.9 µM and the TGI [28] was greater than 53 µM. For the same compound, the TGI [30] was 47.1 µM, the TGI [31] was 29.8 µM and the TGI [58] was greater than 74.4 µM. The TGI [59] was 26.7 µM, the TGI [60] was 31.8 µM and the TGI [61] was greater than 100 µM. The TGI [33] was greater than 100 µM, the TGI [34] was 32.9 µM and the TGI [35] was greater than 100 µM. For the same compound, the TGI [62] was 29.9 µM, the TGI [63] was 32.9 µM and the TGI [37] was 31.9 µM. The TGI [38] was 46.2 µM, the TGI [39] was 31.8 µM and the TGI [40] was 32.1 µM. For the same compound, the TGI [41] was 32.6 µM, the TGI [42] was 32.6 µM and the TGI [43] was 33.9 µM. For the same compound, the TGI [44] was 30.1 µM, the TGI [45] was 32.1 µM and the TGI [46] was greater than 33.4 µM. The TGI [64] was 39.3 µM and the TGI [47] was greater than 100 µM.
